Test results: patent EP0388528B1, “Carboximidamide derivatives” (KIRIN BEER KABUSHIKI KAISHA, priority 1988, dated 1990)

What was measured:
[1] = test system: isolated rat aortae; assay: Vasorelaxing effect on the isolated rat aortae (Referential Example 1)-1); settings: inhibition of contraction induced by 40 mM KCl
Procedure: (§1) The compounds of the present invention were tested for their physiological activities by measuring the tension of isolated rat aortae isometrically.
Thoracic aortae obtained from male Wistar rats (weighing 250-350 g) were cut into ring segments about 3 mm long. The ring preparation was placed in an organ bath filled with 10 ml of Krebs-Ringer solution that was maintained at 37°C and gassed with 95% O₂ - 5% CO₂.
The preparation in the organ bath was allowed to equilibrate under resting tension of 1 g. After equilibration period, the solution in the organ bath was replaced with an isotonic solution containing 40 mM KCl to contract the preparation.
(§2) After the contraction induced by KCl had reached plateau, the concentration-response relationship for the test compound was determined by means of cumulative addition.
(§3) The relaxation response of the test compounds was expressed as the percent inhibition of the contraction induced by KCl, and the IC₅₀ value, which is a concentration required for inhibiting the contraction induced by KCl to an extent of 50%, was calculated by the Probit method from the concentration-response curve.

[2] = test system: isolated rat aortae; assay: Vasorelaxing effect on the isolated rat aortae (Referential Example 2)-1); settings: inhibition of contraction induced by 40 mM KCl, read-out: IC₅₀ Value
Procedure: as §1
Thoracic aortae obtained from male Wistar rats (weighing 250-350 g) were cut into ring segments about 3 mm long. The ring preparation was placed in an organ bath filled with 10 ml of Krebs-Ringer solution which was maintained at 37°C and gassed with 95% O₂ - 5% CO₂.
The preparation in the organ bath was allowed to equilibrate under resting tension 1 g. After equilibration period, the solution in the organ bath was replaced with an isotonic solution containing 40 mM KCl to contract the preparation.
as §2, §3

Structure (SMILES): N#CNC(=NCCCc1ccccc1)c1cccnc1 [(33), N-cyano-N'-(3-phenylpropyl)-3-pyridinecarboximidamide]
- IC50 [1]: 95 µM

Structure (SMILES): N#CNC(=NCc1cc(C(F)(F)F)cc(C(F)(F)F)c1)c1cccnc1 [(25), N-cyano-N'-[3,5-bis(trifluoromethyl)benzyl]-3-pyridinecarboximidamide]
- IC50 [1]: 24 µM

Structure (SMILES): CSC(=NC#N)NCCO[N+](=O)[O-] [(70), 3-Cyano-2-methyl-1-(2-nitroxyethyl)-isothiourea]
- IC50 [2]: 4.3 µM

Structure (SMILES): CN(C)c1ccc(CN=C(NC#N)c2cccnc2)cc1 [Compound (20), N-cyano-N'-(4-dimethylaminobenzyl)-3-pyridinecarboximidamide]
- IC50 [1]: 78 µM

Structure (SMILES): Cc1ccc(CCN=C(NC#N)c2ccccn2)cc1 [(9), N-cyano-N'-[2-(4-methylphenyl)ethyl]-2-pyridinecarboximidamide]
- IC50 [1]: 72 µM

Structure (SMILES): N#CNC(=NCCSc1ccccc1)c1ccncc1 [(49), N-cyano-N'-(2-phenylthioethyl)-4-pyridinecarboximidamide]
- IC50 [1]: 62 µM

Structure (SMILES): N#CNC(=NCC(OCc1ccccc1)c1ccccc1)c1cccnc1 (stereo not shown) [Compound (38), N-cyano-N'-(2-benzyloxy-2-phenylethyl)-3-pyridinecarboximidamide]
- IC50 [1]: 68 µM

Structure (SMILES): CC(C)(C)CCN=C(NC#N)c1cccnc1 [(15), N-cyano-N'-(3,3-dimethylbutyl)-3-pyridinecarboximidamide]
- IC50 [1]: 95 µM

Structure (SMILES): N#CNC(=NCCc1ccc(Cl)cc1)c1ccccn1 [(10), N-cyano-N'-[2-(4-chlorophenyl)ethyl]-2-pyridinecarboximidamide]
- IC50 [1]: 40 µM

Structure (SMILES): N#CNC(=NCCc1ccc(Cl)cc1)c1ccncc1 [(47), N-cyano-N'-[2-(4-chlorophenyl)ethyl]-4-pyridinecarboximidamide]
- IC50 [1]: 40 µM

Structure (SMILES): N#CNC(=NCc1ccc(C(F)(F)F)cc1)c1cccnc1 [(21), N-cyano-N'-[4-(trifluoromethyl)benzyl]-3-pyridinecarboximidamide]
- IC50 [1]: 70 µM

Structure (SMILES): N#CNC(=NCCc1ccccc1)c1ccsc1 [(68), N-cyano-N′-(2-phenylethyl)-3-thiophenecarboximidamide]
- IC50 [2]: 92 µM

Structure (SMILES): N#CNC(=NCC(c1ccccc1)c1ccccc1)c1cccnc1 [(36), N-cyano-N'-(2,2-diphenylethyl)-3-pyridinecarboximidamide]
- IC50 [1]: 16 µM

Structure (SMILES): N#CNC(=NCc1ccc(Cl)cc1)c1ccccn1 [(7), N-cyano-N'-(4-chlorobenzyl)-2-pyridinecarboximidamide]
- IC50 [1]: 23 µM

Structure (SMILES): COc1ccccc1CCN=C(NC#N)c1cccnc1 [(28), N-cyano-N'-[2-(2-methoxyphenyl)ethyl]-3-pyridinecarboximidamide]
- IC50 [1]: 70 µM

Structure (SMILES): Cc1ccc(CN=C(NC#N)c2cccnc2)cc1 [(18), N-cyano-N'-(4-methylbenzyl)-3-pyridinecarboximidamide]
- IC50 [1]: 22 µM

Structure (SMILES): N#CNC(=NCCO[N+](=O)[O-])c1ccoc1 [(64), N-cyano-N′-(2-nitroxyethyl)-3-furancarboximidamide]
- IC50 [2]: 8 µM

Structure (SMILES): N#CNC(=NCCCO[N+](=O)[O-])c1cccnc1 [(14), N-cyano-N'-(3-nitroxypropyl)-3-pyridinecarboximidamide]
- IC50 [1]: 20 µM

Structure (SMILES): N#CNC(=NCCCO[N+](=O)[O-])c1ccncc1 [(42), N-cyano-N'-(3-nitroxypropyl)-4-pyridinecarboximidamide]
- IC50 [1]: 20 µM

Structure (SMILES): N#CN=C(NCCc1ccccc1)c1ccc(Cl)nc1 [(53), N-cyano-N'-(2-phenylethyl)-3-(6-chloropyridine)carboximidamide]
- IC50 [1]: 77 µM

Structure (SMILES): N#CN=C(N)c1cccnc1 [N-cyano-3-pyridine-carboxyimidamide, reference compound]
- IC50 [1]: 40000 µM

Structure (SMILES): N#CNC(=Nc1ccccc1)c1ccccn1 [(4), N-cyano-N'-phenyl-2-pyridinecarboximidamide]
- IC50 [1]: 31 µM

Structure (SMILES): N#CNC(=NCC(O[N+](=O)[O-])c1ccc([N+](=O)[O-])cc1)c1cccnc1 (stereo not shown) [(32), N-cyano-N'-[2-(4-nitrophenyl)-2-nitroxyethyl]-3-pyridinecarboximidamide]
- IC50 [1]: 78 µM

Structure (SMILES): N#CNC(=NCC(O[N+](=O)[O-])c1ccc([N+](=O)[O-])cc1)c1ccncc1 (stereo not shown) [(50), N-cyano-N'-[2-(4-nitrophenyl)-2-nitroxyethyl]-4-pyridinecarboximidamide]
- IC50 [1]: 14 µM

Structure (SMILES): COc1ccc(NC(=NC#N)c2cccnc2)c(OC)n1 [(40), N-cyano-N'-3-(2,6-dimethoxypyridine)-3-pyridinecarboximidamide]
- IC50 [1]: 40 µM

Structure (SMILES): COc1ccccc1CCN=C(NC#N)c1ccncc1 [(48), N-cyano-N'-[2-(2-methoxyphenyl)ethyl]-4-pyridinecarboximidamide]
- IC50 [1]: 73 µM

Structure (SMILES): N#CNC(=NCCC(c1ccccc1)c1ccccc1)c1cccnc1 [(37), N-cyano-N'-(3,3-diphenylpropyl)-3-pyridinecarboximidamide]
- IC50 [1]: 28 µM

Structure (SMILES): Cc1ccc(CN=C(NC#N)c2ccccn2)cc1 [(6), N-cyano-N'-(4-methylbenzyl)-2-pyridinecarboximidamide]
- IC50 [1]: 51 µM

Structure (SMILES): N#CNC(=NC(Cc1ccccc1)c1ccccc1)c1cccnc1 (stereo not shown) [(35), N-cyano-N'-(1,2-diphenylethyl)-3-pyridinecarboximidamide]
- IC50 [1]: 18 µM

Structure (SMILES): CC(N=C(NC#N)c1ccccn1)C(O)c1ccccc1 (stereo not shown) [(11), N-cyano-N'-(2-hydroxy-1-methyl-2-phenylethyl)-2-pyridinecarboximidamide]
- IC50 [1]: 12 µM

Structure (SMILES): N#CNC(=NCCc1ccc(OCc2ccccc2)c(OCc2ccccc2)c1)c1cccnc1 [(39), N-cyano-N'-[2-(3,4-dibenzyloxyphenyl)ethyl]-3-pyridinecarboximidamide]
- IC50 [1]: 48 µM

Structure (SMILES): CC(N=C(NC#N)c1ccccn1)C(C)(C)C (stereo not shown) [(3), N-cyano-N'-(1,2,2-trimethylpropyl)-2-pyridinecarboximidamide]
- IC50 [1]: 49 µM

Structure (SMILES): CC(C)(C)CN=C(NC#N)c1ccccn1 [(2), N-cyano-N'-(2,2-dimethylpropyl)-2-pyridinecarboximidamide]
- IC50 [1]: 60 µM

Structure (SMILES): COc1ccc(N=C(NC#N)c2ccccn2)cc1 [(5), N-cyano-N'-(4-methoxyphenyl)-2-pyridinecarboximidamide]
- IC50 [1]: 65 µM

Structure (SMILES): Cc1ccc(N=C(NC#N)c2cccnc2)cc1 [(16), N-cyano-N'-(4-methylphenyl)-3-pyridinecarboximidamide]
- IC50 [1]: 17 µM

Structure (SMILES): N#CNC(=NCCc1ccc(Cl)cc1)c1cccnc1 [(30), N-cyano-N'-[2-(4-chlorophenyl)ethyl]-3-pyridinecarboximidamide]
- IC50 [1]: 43 µM

Structure (SMILES): N#CNC(=NCCc1ccc(NCc2ccccc2)cc1)c1cccnc1 [(31), N-cyano-N'-[2-(4-benzylaminophenyl)ethyl]-3-pyridinecarboximidamide]
- IC50 [1]: 16 µM

Structure (SMILES): N#CNC(=NCc1ccc([N+](=O)[O-])cc1)c1cccnc1 [(23), N-cyano-N'-(4-nitrobenzyl)-3-pyridinecarboximidamide]
- IC50 [1]: 98 µM

Structure (SMILES): N#CNC(=NCc1cccs1)c1ccccn1 [(12), N-cyano-N'-(2-thienylmethyl)-2-pyridinecarboximidamide]
- IC50 [1]: 24 µM

Structure (SMILES): N#CNC(=NCc1ccc(Cl)c(Cl)c1)c1ccncc1 [(44), N-cyano-N'-(3,4-dichlorobenzyl)-4-pyridinecarboximidamide]
- IC50 [1]: 19 µM

Structure (SMILES): N#CNC(=NCc1ccc(Cl)cc1)c1cccnc1 [(22), N-cyano-N'-(4-chlorobenzyl)-3-pyridinecarboximidamide]
- IC50 [1]: 22 µM

Structure (SMILES): N#CNC(=NCc1ccc(C(F)(F)F)cc1)c1ccccn1 [(8), N-cyano-N'-[4-(trifluoromethyl)benzyl]-2-pyridinecarboximidamide]
- IC50 [1]: 57 µM

Structure (SMILES): N#CNC(=NCc1ccc(Cl)c(Cl)c1)c1cccnc1 [(24), N-cyano-N'-(3,4-dichlorobenzyl)-3-pyridinecarboximidamide]
- IC50 [1]: 21 µM

Structure (SMILES): CC(N=C(NC#N)c1ccncc1)C(O[N+](=O)[O-])c1ccc([N+](=O)[O-])cc1 (stereo not shown) [(51), N-cyano-N'-[1-methyl-2-(4-nitrophenyl)-2-nitroxyethyl]-4-pyridinecarboximidamide]
- IC50 [1]: 13 µM

Structure (SMILES): N#CNC(=NCc1cccc(OCc2ccccc2)c1)c1cccnc1 [(26), N-cyano-N'-(3-benzyloxybenzyl)-3-pyridinecarboximidamide]
- IC50 [1]: 23 µM

Structure (SMILES): N#CNC(=NCc1cccc(OCc2ccccc2)c1)c1ccncc1 [(46), N-cyano-N'-(3-benzyloxybenzyl)-4-pyridinecarboximidamide]
- IC50 [1]: 30 µM

Structure (SMILES): N#CNC(=Nc1ccccc1)c1ccncc1 [(43), N-cyano-N'-phenyl-4-pyridinecarboximidamide]
- IC50 [1]: 52 µM

Structure (SMILES): N#CN=C(NCCO[N+](=O)[O-])c1ccc(Cl)nc1 [(52), N-cyano-N'-(2-nitroxyethyl)-3-(6-chloropyridine)carboximidamide]
- IC50 [1]: 11 µM

Structure (SMILES): N#CN=C(N)c1ccncc1 [N-cyano-4-pyridine-carboxyimidamide, reference compound]
- IC50 [1]: 180 µM

Structure (SMILES): CSc1ccc(CN=C(NC#N)c2ccncc2)cc1 [(45), N-cyano-N'-(4-methylthiobenzyl)-4-pyridinecarboximidamide]
- IC50 [1]: 49 µM

Structure (SMILES): N#CNC(=NC(c1ccccc1)c1ccccc1)c1cccnc1 [(34), N-cyano-N'-diphenylmethyl-3-pyridinecarboximidamide]
- IC50 [1]: 38 µM

Structure (SMILES): COc1ccc(CN=C(NC#N)c2cccnc2)cc1 [(19), N-cyano-N'-(4-methoxybenzyl)-3-pyridinecarboximidamide]
- IC50 [1]: 37 µM
